For 10 molecules, TGI results are on record in PubChem BioAssay (NCI).

Among the test systems are IGROV1 ovarian; DU-145 prostate; RXF 393 renal; M14 melanoma; SW-620 colon; COLO 205 colon; MCF7 breast; SR leukemia; A549 NSCLC; HT29 colon; HS 578T breast; SF-268 CNS; SN12C renal; SK-MEL-5 melanoma; LOX IMVI melanoma.
Assay in all cases: NCI tumour cell line growth inhibition, 48 h

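Interpolation was linear, between the two tested concentrations surrounding the appropriate level; five concentrations were tested over 48 hours in 96-well plates. Definition used: TGI = concentration required for complete inhibition of growth.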

Take `CC(C)(C)C(O)CC(O)(C(F)(F)F)C(F)(F)F` (stereo not given): the TGI in the assay with IGROV1 ovarian, in the assay on DU-145 prostate, in the assay with RXF 393 renal, in the assay on M14 melanoma, with SW-620 colon and in the assay on COLO 205 colon was > 100 µM in each case. For the same molecule, the TGI in the assay with MCF7 breast, with SR leukemia, in the assay on A549 NSCLC, in the assay with HT29 colon, in the assay with HS 578T breast and in the assay on SF-268 CNS was > 100 µM in each case. Also, the TGI in the assay with SN12C renal, in the assay on SK-MEL-5 melanoma and in the assay with LOX IMVI melanoma was > 100 µM throughout.

Consider `CCOC(CN(C)C(=O)Nc1ccc(Cl)c(Cl)c1)OCC`, for which the TGI in the assay on IGROV1 ovarian, in the assay with DU-145 prostate, with RXF 393 renal, in the assay with M14 melanoma, in the assay on SW-620 colon and with COLO 205 colon was > 10 µM in each case. The TGI in the assay on MCF7 breast, in the assay on SR leukemia, with A549 NSCLC, in the assay on HT29 colon, in the assay with HS 578T breast and with SF-268 CNS was > 10 µM in each case. In addition, the TGI in the assay with SN12C renal, with SK-MEL-5 melanoma and in the assay with LOX IMVI melanoma was > 10 µM each time.

On to `CCCCCCCCCC(=O)NCCc1c[nH]c2ccc(OC)cc12`, for which the TGI in the assay with IGROV1 ovarian is 30 µM; with DU-145 prostate, 42.1 µM; with RXF 393 renal, 38 µM; with M14 melanoma it was 34 µM; in the assay on SW-620 colon, 34.5 µM; with COLO 205 colon, 55.7 µM. For the same molecule, the TGI in the assay on MCF7 breast is 33.7 µM; in the assay with SR leukemia, > 100 µM; in the assay on A549 NSCLC, 40.1 µM; in the assay with HT29 colon, > 100 µM; in the assay on HS 578T breast, 42.8 µM; with SF-268 CNS, 34.2 µM. Besides, the TGI was 33.1 µM in the assay on SN12C renal, 34.3 µM in the assay with SK-MEL-5 melanoma and 27.6 µM in the assay on LOX IMVI melanoma.

For `COc1cccc(C2c3cc4c(cc3OC(NNC(N)=O)C2C)OCO4)c1O` (stereo not given), the TGI is > 100 µM in the assay with IGROV1 ovarian; > 100 µM in the assay with DU-145 prostate; 34.3 µM in the assay with RXF 393 renal; 23.6 µM in the assay with M14 melanoma; > 100 µM in the assay on SW-620 colon; 9.05 µM in the assay with COLO 205 colon. For the same molecule, the TGI with MCF7 breast is > 100 µM; in the assay with SR leukemia it was > 19.8 µM; in the assay on A549 NSCLC, > 39.8 µM; in the assay on HT29 colon, > 23 µM; with HS 578T breast, > 50.8 µM; in the assay on SF-268 CNS, > 72.2 µM. For the same molecule, the TGI was > 100 µM in the assay with SN12C renal, 8.54 µM with SK-MEL-5 melanoma and > 100 µM with LOX IMVI melanoma.

Consider `CC(=O)Nc1ncc2c(n1)-c1ccccc1OC2c1ccccc1` (stereo not given), for which the TGI in the assay on IGROV1 ovarian was > 100 µM; in the assay on DU-145 prostate it was > 100 µM; in the assay with RXF 393 renal, 63.2 µM; with M14 melanoma, > 100 µM; in the assay on SW-620 colon it was > 100 µM; with COLO 205 colon, > 100 µM. In addition, the TGI with MCF7 breast was > 100 µM; in the assay with SR leukemia it was > 100 µM; with A549 NSCLC, > 100 µM; with HT29 colon it was > 100 µM; in the assay on HS 578T breast, 55.4 µM; in the assay on SF-268 CNS, 63.5 µM. Besides, the TGI in the assay with SN12C renal, in the assay on SK-MEL-5 melanoma and with LOX IMVI melanoma was > 100 µM in each case.

Regarding `CC1(C)CCCC2CC2CCC(C)(C)C1=O` (stereo not given), the TGI with IGROV1 ovarian is > 100 µM; in the assay on DU-145 prostate it was > 100 µM; in the assay on RXF 393 renal it was 87.7 µM; with M14 melanoma, > 100 µM; in the assay with SW-620 colon it was > 100 µM; in the assay on COLO 205 colon, 39 µM. The TGI is 75.8 µM in the assay with MCF7 breast; 45.6 µM with SR leukemia; > 100 µM with A549 NSCLC; > 100 µM in the assay with HT29 colon; > 100 µM with HS 578T breast; > 100 µM with SF-268 CNS. Besides, the TGI in the assay on SN12C renal, with SK-MEL-5 melanoma and in the assay on LOX IMVI melanoma was > 100 µM throughout.

Turning to `Brc1c2c(c(Br)c3nsnc13)N=S=N2`, the TGI is > 60.7 µM in the assay with IGROV1 ovarian; > 100 µM in the assay with DU-145 prostate; 35.9 µM in the assay on RXF 393 renal; 50.5 µM in the assay with M14 melanoma; > 68.5 µM with SW-620 colon; > 60.1 µM in the assay on COLO 205 colon. Besides, the TGI in the assay with MCF7 breast was > 65.6 µM; with SR leukemia it was 14.1 µM; in the assay with A549 NSCLC, > 100 µM; in the assay with HT29 colon, > 60.4 µM; in the assay on HS 578T breast, 75 µM; with SF-268 CNS, 75.4 µM. Besides, the TGI with SN12C renal was found to be 32.8 µM; in the assay with SK-MEL-5 melanoma it was 42.5 µM; in the assay with LOX IMVI melanoma, 13.9 µM.

On to `N#CC(NNC(=O)c1c(Cl)c(Cl)c(Cl)c(Cl)c1-c1nc2ccc(C(=O)c3ccccc3)cc2[nH]1)c1ccccc1` (stereo not given), for which the TGI with IGROV1 ovarian is > 100 µM; in the assay on DU-145 prostate it was > 100 µM; in the assay on RXF 393 renal, 22.8 µM; in the assay on M14 melanoma, 31.1 µM; in the assay with SW-620 colon, > 100 µM; with COLO 205 colon, 24.3 µM. Also, the TGI is 12.7 µM in the assay on MCF7 breast; 11.2 µM with SR leukemia; > 100 µM with A549 NSCLC; > 100 µM with HT29 colon; > 100 µM in the assay with HS 578T breast; > 100 µM in the assay on SF-268 CNS. The TGI in the assay on SN12C renal was 31.1 µM; in the assay with SK-MEL-5 melanoma, 13.3 µM; with LOX IMVI melanoma it was 87.9 µM.

Turning to `Cc1cn(CC2=NC3CCCCC3N2)c(=O)[nH]c1=O` (stereo not given), the TGI in the assay with IGROV1 ovarian, in the assay on DU-145 prostate, in the assay with RXF 393 renal, in the assay with M14 melanoma, with SW-620 colon and in the assay with COLO 205 colon was > 100 µM in each case. The TGI with MCF7 breast, in the assay with SR leukemia, with A549 NSCLC, in the assay on HT29 colon, in the assay on HS 578T breast and with SF-268 CNS was > 100 µM in each case. Further, the TGI with SN12C renal, in the assay with SK-MEL-5 melanoma and with LOX IMVI melanoma was > 100 µM each time.

For the molecule `O=C(O)CCNc1ncc2c(n1)-c1ccccc1OC2`, the TGI in the assay with IGROV1 ovarian, in the assay on DU-145 prostate, with RXF 393 renal, in the assay with M14 melanoma, in the assay with SW-620 colon and in the assay with COLO 205 colon was > 100 µM in each case. The TGI with MCF7 breast, with SR leukemia, in the assay with A549 NSCLC, in the assay on HT29 colon, with HS 578T breast and with SF-268 CNS was > 100 µM throughout. The TGI in the assay on SN12C renal, with SK-MEL-5 melanoma and in the assay on LOX IMVI melanoma was > 100 µM throughout.
